According to patent US20250340575A1, “4-AMINOPYRROLO[2,1-F][1,2,4]TRIAZINES AND PREPARATION AND USES THEREOF” (Biosplice Therapeutics, Inc., priority 2024, published 2025):

What follows are compounds tested against recombinant DYRK1A kinase (Homo sapiens, UniProt Q13627) (assay: DYRK1A kinase assay (Ser/Thr 18 peptide Z-lyte FRET)). Conditions: DYRK1A 0.25 μg/mL, ATP 15 μM, Ser/Thr peptide 18 4 μM, one hour at room temperature, 11-point dose-response from 10 μM.
Assay type: biochemical

Row | Compound | IC50
1 | CNc1nc(N[C@H]2CCN(C(C)=O)C[C@H]2F)nn2ccc(-c3ccc4nnn(CCCF)c4n3)c12 [Compound 335, 1-((3R,4S)-3-Fluoro-4-((5-(3-(3-fluoropropyl)-3H-[1,2,3]triazolo[4,5-b]pyridin-5-yl)-4-(methylamino)pyrrolo[2,1-f][1,2,4]triazin-2-yl)amino)piperidin-1-yl)ethan-1-one] | 3.4 nM
2 | CNc1nc(N[C@H]2CCN(C3COC3)C[C@H]2F)nn2ccc(-c3ccc4nnn(CCCF)c4n3)c12 [Compound 337, N^2-((3R,4S)-3-Fluoro-1-(oxetan-3-yl)piperidin-4-yl)-5-(3-(3-fluoropropyl)-3H-[1,2,3]triazolo[4,5-b]pyridin-5-yl)-N^4-methylpyrrolo[2,1-f][1,2,4]triazine-2,4-diamine] | 4.4 nM
3 | CNc1nc(N[C@@H]2CCN(C)CC2(F)F)nn2ccc(-c3ccc4nnn(CCCF)c4n3)c12 [Compound 338, (R)—N^2-(3,3-Difluoro-1-methylpiperidin-4-yl)-5-(3-(3-fluoropropyl)-3H-[1,2,3]triazolo[4,5-b]pyridin-5-yl)-N^4-methylpyrrolo[2,1-f][1,2,4]triazine-2,4-diamine] | 3.1 nM
4 | CNc1nc(N[C@@H]2CCN(C(C)=O)CC2(F)F)nn2ccc(-c3ccc4nnn(CCCF)c4n3)c12 [Compound 339, (R)-1-(3,3-Difluoro-4-((5-(3-(3-fluoropropyl)-3H-[1,2,3]triazolo[4,5-b]pyridin-5-yl)-4-(methylamino)pyrrolo[2,1-f][1,2,4]triazin-2-yl)amino)piperidin-1-yl)ethan-1-one] | 3.5 nM
5 | CCNc1nc(N[C@H]2CCN(C3COC3)C[C@H]2F)nn2ccc(-c3ccc4nnn(CC(F)F)c4n3)c12 [Compound 403, 5-(3-(2,2-Difluoroethyl)-3H-[1,2,3]triazolo[4,5-b]pyridin-5-yl)-N^4-ethyl-N^2-((3R,4S)-3-fluoro-1-(oxetan-3-yl)piperidin-4-yl)pyrrolo[2,1-f][1,2,4]triazine-2,4-diamine] | 4.2 nM
6 | CC(C)Nc1nc(N[C@H]2CCN(C3COC3)C[C@H]2F)nn2ccc(-c3ccc4nnn(CC(F)F)c4n3)c12 [Compound 411, 5-(3-(2,2-Difluoroethyl)-3H-[1,2,3]triazolo[4,5-b]pyridin-5-yl)-N^2-((3R,4S)-3-fluoro-1-(oxetan-3-yl)piperidin-4-yl)-N^4-isopropylpyrrolo[2,1-f][1,2,4]triazine-2,4-diamine] | 9.7 nM
7 | FC(F)Cn1nnc2ccc(-c3ccn4nc(N[C@H]5CCN(C6COC6)C[C@H]5F)nc(NC5CC5)c34)nc21 [Compound 419, N^4-Cyclopropyl-5-(3-(2,2-difluoroethyl)-3H-[1,2,3]triazolo[4,5-b]pyridin-5-yl)-N^2-((3R,4S)-3-fluoro-1-(oxetan-3-yl)piperidin-4-yl)pyrrolo[2,1-f][1,2,4]triazine-2,4-diamine] | 8.2 nM
